The values below come from US12172995B2, “Substituted indole and indazole compounds” (BRISTOL-MYERS SQUIBB COMPANY, priority 2018, dated 2024).

Common to all, as to assay type: cell-based
One assay concerns the target T1, human TLR7 (Homo sapiens, UniProt Q9NYK1).
T1 construct: host or cells: HEK-Blue cells
T1 sequence (Q9NYK1 27-1049): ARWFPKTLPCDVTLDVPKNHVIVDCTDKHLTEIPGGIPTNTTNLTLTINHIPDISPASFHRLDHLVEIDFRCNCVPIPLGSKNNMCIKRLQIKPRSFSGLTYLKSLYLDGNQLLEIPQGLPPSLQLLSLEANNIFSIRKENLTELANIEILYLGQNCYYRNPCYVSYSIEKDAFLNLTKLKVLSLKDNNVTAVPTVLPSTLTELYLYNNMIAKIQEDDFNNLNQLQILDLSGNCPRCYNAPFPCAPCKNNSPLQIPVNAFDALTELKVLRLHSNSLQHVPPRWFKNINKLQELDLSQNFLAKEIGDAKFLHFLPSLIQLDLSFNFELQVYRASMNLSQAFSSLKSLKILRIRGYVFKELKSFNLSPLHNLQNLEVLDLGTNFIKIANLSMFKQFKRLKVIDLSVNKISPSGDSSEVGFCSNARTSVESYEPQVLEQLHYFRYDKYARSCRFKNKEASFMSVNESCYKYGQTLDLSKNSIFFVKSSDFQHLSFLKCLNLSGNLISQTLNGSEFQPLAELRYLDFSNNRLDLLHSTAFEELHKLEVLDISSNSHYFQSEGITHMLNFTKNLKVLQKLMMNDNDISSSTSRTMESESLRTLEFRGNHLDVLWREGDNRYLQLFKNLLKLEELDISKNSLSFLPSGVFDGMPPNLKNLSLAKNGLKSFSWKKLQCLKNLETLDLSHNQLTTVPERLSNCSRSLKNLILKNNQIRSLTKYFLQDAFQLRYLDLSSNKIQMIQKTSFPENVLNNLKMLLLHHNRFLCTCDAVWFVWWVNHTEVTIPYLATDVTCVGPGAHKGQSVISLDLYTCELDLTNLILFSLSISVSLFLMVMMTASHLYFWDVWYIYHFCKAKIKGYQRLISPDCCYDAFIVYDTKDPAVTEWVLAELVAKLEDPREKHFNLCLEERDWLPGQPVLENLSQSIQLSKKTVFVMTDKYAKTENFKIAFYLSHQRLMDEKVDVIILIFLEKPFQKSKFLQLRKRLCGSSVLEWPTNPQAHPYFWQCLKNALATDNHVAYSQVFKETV
Nature of the assay: TLR7 inhibition reporter assay (HEK-Blue SEAP). As to conditions: HEK-Blue cells overexpressing human TLR7, stimulated with gardiquimod 7.5 μM, 22 hour incubation. The method in brief: (§1)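 Percent inhibition reflects SEAP reduction after 22 h at 37° C, relative to agonist-plus-DMSO and known-inhibitor controls. Compounds (0.05 nM to 50 μM) were added 30 min before agonist: TLR9 cells received ODN2006 5 nM, TLR8 cells R848 15.9 μM, TLR7 cells gardiquimod 7.5 μM; human receptor-expressing HEK-Blue reporter lines.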
A general note: In a reporter assay the amount or activity of a reporter protein is the signal.

The target of a further assay is T2, human TLR9 (Homo sapiens, UniProt Q9NR96).
T2 construct: host or cells: HEK-Blue cells
T2 sequence (Q9NR96 26-1032): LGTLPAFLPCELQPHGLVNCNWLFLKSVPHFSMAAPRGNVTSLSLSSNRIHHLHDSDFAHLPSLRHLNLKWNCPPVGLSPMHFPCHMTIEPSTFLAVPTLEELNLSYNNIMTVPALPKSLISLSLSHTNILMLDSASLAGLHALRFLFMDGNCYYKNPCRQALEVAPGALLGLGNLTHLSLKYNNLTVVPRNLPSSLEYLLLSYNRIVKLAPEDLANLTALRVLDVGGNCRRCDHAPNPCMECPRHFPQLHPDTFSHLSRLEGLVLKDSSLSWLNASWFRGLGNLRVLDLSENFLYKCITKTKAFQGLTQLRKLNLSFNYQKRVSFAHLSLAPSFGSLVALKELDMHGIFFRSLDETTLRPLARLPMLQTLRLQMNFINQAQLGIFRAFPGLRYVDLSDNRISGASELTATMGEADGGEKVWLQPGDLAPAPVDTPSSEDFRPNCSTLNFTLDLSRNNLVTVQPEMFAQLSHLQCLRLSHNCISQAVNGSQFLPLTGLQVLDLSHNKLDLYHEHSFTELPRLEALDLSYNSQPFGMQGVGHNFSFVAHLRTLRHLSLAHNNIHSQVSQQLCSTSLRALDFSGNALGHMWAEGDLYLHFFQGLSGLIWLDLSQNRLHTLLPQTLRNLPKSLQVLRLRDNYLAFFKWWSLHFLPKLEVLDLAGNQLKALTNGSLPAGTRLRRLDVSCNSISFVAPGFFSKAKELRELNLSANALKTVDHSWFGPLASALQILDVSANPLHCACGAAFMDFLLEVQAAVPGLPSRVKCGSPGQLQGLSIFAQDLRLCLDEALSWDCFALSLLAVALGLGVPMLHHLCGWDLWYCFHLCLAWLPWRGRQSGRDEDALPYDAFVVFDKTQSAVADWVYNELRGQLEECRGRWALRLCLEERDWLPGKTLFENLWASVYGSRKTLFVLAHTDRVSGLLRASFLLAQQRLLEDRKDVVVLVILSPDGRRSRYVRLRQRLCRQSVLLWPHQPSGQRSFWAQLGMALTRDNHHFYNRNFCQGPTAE
Nature of the assay: TLR9 inhibition reporter assay (HEK-Blue SEAP). As to conditions: HEK-Blue cells overexpressing human TLR9, stimulated with ODN2006 5 nM, 22 hour incubation. The method in brief:
as §1

The next assay deals with T3, human TLR8 (Homo sapiens, UniProt Q9NR97).
T3 construct: host or cells: HEK-Blue cells
T3 sequence (Q9NR97 27-1041): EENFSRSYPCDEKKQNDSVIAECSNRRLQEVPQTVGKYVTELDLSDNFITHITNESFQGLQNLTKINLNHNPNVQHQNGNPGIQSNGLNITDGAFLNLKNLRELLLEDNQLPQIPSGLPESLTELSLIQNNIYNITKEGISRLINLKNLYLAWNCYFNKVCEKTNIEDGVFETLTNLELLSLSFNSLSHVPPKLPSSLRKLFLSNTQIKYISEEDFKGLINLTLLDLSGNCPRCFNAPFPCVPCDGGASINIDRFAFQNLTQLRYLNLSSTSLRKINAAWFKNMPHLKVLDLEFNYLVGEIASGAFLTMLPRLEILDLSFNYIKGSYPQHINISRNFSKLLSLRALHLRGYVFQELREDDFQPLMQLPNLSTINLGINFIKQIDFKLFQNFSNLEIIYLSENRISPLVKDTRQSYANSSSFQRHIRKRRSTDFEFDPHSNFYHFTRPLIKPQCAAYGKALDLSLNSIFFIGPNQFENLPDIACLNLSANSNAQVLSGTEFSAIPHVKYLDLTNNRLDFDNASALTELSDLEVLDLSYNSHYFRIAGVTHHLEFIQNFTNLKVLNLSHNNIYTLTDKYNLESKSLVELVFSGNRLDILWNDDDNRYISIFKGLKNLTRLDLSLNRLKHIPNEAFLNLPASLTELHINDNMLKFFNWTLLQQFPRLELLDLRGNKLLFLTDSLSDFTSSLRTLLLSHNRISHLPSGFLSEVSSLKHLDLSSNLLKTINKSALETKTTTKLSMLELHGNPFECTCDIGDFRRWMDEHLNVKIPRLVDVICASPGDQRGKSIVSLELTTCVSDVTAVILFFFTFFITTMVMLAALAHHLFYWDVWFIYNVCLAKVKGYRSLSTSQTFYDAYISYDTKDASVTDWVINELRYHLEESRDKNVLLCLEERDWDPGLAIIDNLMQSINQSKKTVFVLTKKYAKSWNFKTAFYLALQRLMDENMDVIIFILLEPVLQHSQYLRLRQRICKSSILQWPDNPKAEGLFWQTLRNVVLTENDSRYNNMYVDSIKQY
Nature of the assay: TLR8 inhibition reporter assay (HEK-Blue SEAP). As to conditions: HEK-Blue cells overexpressing human TLR8, stimulated with R848 15.9 μM, 22 hour incubation. The method in brief:
as §1

In the case of `Cc1cc(-c2cc(C)c3ncnn3c2)cc2[nH]nc(OC3CCC(NC4CC4)CC3)c12` (single isomer, unassigned) [Example 189, N-cyclopropyl-4-((4-methyl-6-(8-methyl-[1,2,4]triazolo[1,5-a]pyridin-6-yl)-1H-indazol-3-yl)oxy)cyclohexan-1-amine], the values for the IC50 at human TLR7, at human TLR9 and against human TLR8 were 12.2 nM, 2340 nM and 8.2 nM, respectively.

Turning to `Cc1cc(-c2cc(C)c3ncnn3c2)cc2[nH]nc(OC3CCC(NC4CC4)CC3)c12` (single isomer, unassigned) [Example 190, N-cyclopropyl-4-((4-methyl-6-(8-methyl-[1,2,4]triazolo[1,5-a]pyridin-6-yl)-1H-indazol-3-yl)oxy)cyclohexan-1-amine], the IC50 at human TLR7 turned out to be 1.6 nM; against human TLR9, 4510 nM; at human TLR8, 1.9 nM.

In the case of `CCc1cc2c(OC3CCC(N(C)C)CC3)n[nH]c2cc1-c1cc(C)c2ncnn2c1` (single isomer, unassigned) [Example 191, 4-((5-ethyl-6-(8-methyl-[1,2,4]triazolo[1,5-a]pyridin-6-yl)-1H-indazol-3-yl)oxy)-N,N-dimethylcyclohexan-1-amine], the IC50 on human TLR7 was determined as 2.6 nM; on human TLR9, 14600 nM; on human TLR8, 0.5 nM.

As to `CCc1cc2c(OC3CCC(N(C)C)CC3)n[nH]c2cc1-c1cc(C)c2ncnn2c1` (single isomer, unassigned) [Example 192, 4-((5-ethyl-6-(8-methyl-[1,2,4]triazolo[1,5-a]pyridin-6-yl)-1H-indazol-3-yl)oxy)-N,N-dimethylcyclohexan-1-amine], the concentration for half-maximal inhibition (IC50) was 0.7 nM against human TLR7, 7890 nM on human TLR9 and 0.1 nM at human TLR8.

Turning to `Cc1cc(-c2cc3[nH]nc(C4CCC(N5CCC6(CCOC6)C5)CC4)c3cc2C(C)C)cn2ncnc12` (single isomer, unassigned) [Example 209, 7-(4-(5-isopropyl-6-(8-methyl-[1,2,4]triazolo[1,5-a]pyridin-6-yl)-1H-indazol-3-yl)cyclohexyl)-2-oxa-7-azaspiro[4.4]nonane], the IC50 on human TLR7 stood at 0.62 nM; against human TLR9, 8000 nM; against human TLR8, 0.05 nM.

For `Cc1cc(-c2cc3[nH]nc(C4CCC(N5CCC6(CCOC6)C5)CC4)c3cc2C(C)C)cn2ncnc12` (single isomer, unassigned) [Example 210, 7-(4-(5-isopropyl-6-(8-methyl-[1,2,4]triazolo[1,5-a]pyridin-6-yl)-1H-indazol-3-yl)cyclohexyl)-2-oxa-7-azaspiro[4.4]nonane], the results for the IC50 against human TLR7, on human TLR9 and at human TLR8 were 2.1 nM, 5910 nM and 0.37 nM, respectively.

In the case of `Cc1cc(-c2cc3[nH]nc(C4CCC(N5CCC(S(C)(=O)=O)C5)CC4)c3cc2C(C)C)cn2ncnc12` (single isomer, unassigned) [Example 211, 6-(5-isopropyl-3-(4-(3-(methylsulfonyl)pyrrolidin-1-yl)cyclohexyl)-1H-indazol-6-yl)-8-methyl-[1,2,4]triazolo[1,5-a]pyridine], the IC50 was 2.5 nM at human TLR7, 32300 nM on human TLR9 and 0.15 nM against human TLR8.

In the case of `Cc1cc(-c2cc3[nH]nc(C4CCC(N5CCC(S(C)(=O)=O)C5)CC4)c3cc2C(C)C)cn2ncnc12` (single isomer, unassigned) [Example 212, 6-(5-isopropyl-3-(4-(3-(methylsulfonyl)pyrrolidin-1-yl)cyclohexyl)-1H-indazol-6-yl)-8-methyl-[1,2,4]triazolo[1,5-a]pyridine], the IC50 against human TLR7 amounted to 8.2 nM; on human TLR9, 24100 nM; against human TLR8, 0.36 nM.

With `Cc1cc2c(C3CCNCC3)c[nH]c2cc1-c1cc(C)c2ncnn2c1` [Example 1, 8-methyl-6-(5-methyl-3-(piperidin-4-yl)-1H-indol-6-yl)-[1,2,4]triazolo[1,5-a]pyridine], the IC50 at human TLR7 stood at 4.1 nM; against human TLR9 it was 657 nM; against human TLR8, 3.9 nM.

As for `Cc1cc(-c2cc(C)c3ncnn3c2)cc2[nH]cc(C3CCNCC3)c12` [Example 2, 8-methyl-6-(4-methyl-3-(piperidin-4-yl)-1H-indol-6-yl)-[1,2,4]triazolo[1,5-a]pyridine], the concentration for half-maximal inhibition (IC50) against human TLR7 amounted to 0.9 nM; at human TLR9, 1040 nM; on human TLR8, 19.9 nM.

`Cc1cc(-c2cc(C)c3ncnn3c2)cc2[nH]nc(C3CCCN(C(=O)CN(C)C)C3)c12` (stereo not drawn) [Example 5, 2-(dimethylamino)-1-(3-(4-methyl-6-(8-methyl-[1,2,4]triazolo[1,5-a]pyridin-6-yl)-1H-indazol-3-yl)piperidin-1-yl)ethan-1-one]: the values for the IC50 against human TLR7, against human TLR9 and against human TLR8 were 4.9 nM, 1560 nM and 13.5 nM, respectively.

Usually IC50 stands for the concentration that gives 50% inhibition. Read a low IC50 as inhibition by little substance.
